The assay deals with T1, Angiotensin II Receptor (Bos taurus, UniProt P25104).
T1 construct: The brownish tissue forming the adrenal cortex is scraped off and finely minced with scissors before homogenization; tissue Maxwell-Cohen (local slaughter house); host or cells: beef adrenal cortex, microsomal membranes
T1 sequence (P25104 1-359): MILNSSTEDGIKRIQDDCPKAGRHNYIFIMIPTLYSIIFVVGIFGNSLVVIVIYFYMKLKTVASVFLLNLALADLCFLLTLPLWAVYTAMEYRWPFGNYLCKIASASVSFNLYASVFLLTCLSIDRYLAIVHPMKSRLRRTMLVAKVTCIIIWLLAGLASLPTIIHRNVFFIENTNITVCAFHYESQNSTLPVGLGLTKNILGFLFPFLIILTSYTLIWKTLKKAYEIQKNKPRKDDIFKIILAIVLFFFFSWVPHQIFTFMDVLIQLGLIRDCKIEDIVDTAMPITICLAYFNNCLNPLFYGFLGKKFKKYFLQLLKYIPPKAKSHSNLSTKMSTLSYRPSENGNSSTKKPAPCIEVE
The assay can be described thus: Receptor Binding Assay: competition with [^125 I](Sar^1, Ile^8)AngII on adrenal cortex microsomal membranes. On the set-up: species or system beef. Conditions: beef adrenal cortex membranes, [^125 I](Sar^1, Ile^8)AngII, 60 min, room temperature, pH 7.4. The text has this:
Beef adrenals are obtained from a local slaughter house (Maxwell-Cohen). […] All unlabeled AngII analogs, Dimethylsulfoxide (DMSO), nucleotides, bovine serum albumin (BSA) are purchased from Sigma Chemical Co., St. Louis, Mo. U.S.A.
Approximately sixteen (16) to twenty (20) beef adrenal glands are processed as follows: fresh adrenal glands received on crushed ice are cleaned of fatty tissues and the tough membranes encapsulating the glands are removed and discarded. The brownish tissue forming the adrenal cortex is scraped off and finely minced with scissors before homogenization. Care is taken to avoid contamination with medullary tissue during dissection. The scraped cortices are suspended in twenty volumes of an ice-cold buffer medium consisting of 10 mM Tris.HCl (pH 7.4 at 22° C.) and containing 1.0 mM EDTA and 0.2M sucrose. Unless otherwise indicated, all subsequent operations are done at 4° C. […] The homogenate is centrifuged first at low speed (3,000× g) for 10 min. The resulting pellet is discarded and the supernatant fluid recentrifuged at 10,000× g for 15 minutes to give a P2 pellet. […] The translucent final pellet is harvested and combined in a small volume (20-50.0 ml) of 50.0 mM Tris.HCl buffer, pH 7.2. […] The pelleted membrane is reconstituted in 50.0 mM Tris.HCl buffer containing 0.1 mM of phenylmethylsulfonyl fluoride (PMSF) to give approximately a protein concentration of 2.5 mg per ml of tissue suspension. The membrane preparation is finally aliquoted in 1.0 ml volumes and stored at -70° C. until use in the binding assays.
Assays are performed in triplicate. The wells are left undisturbed for 60 min. at room temperature. […] The filter discs are washed with 10×1.0 ml of cold 0.9% NaCl to remove unbound ligand. […] This method is routinely used. The filters are removed from the filter grid and counted in a Parkard® Cobra Gamma Counter for 1 min. (Packard Instrument Co., Downers Grove, Ill., U.S.A.).

Molecules are shown by their SMILES.

A word on the IC50: it is the concentration needed to halve the response being measured.

`CCCCc1nc2ccc(C3CCC4CCCCC4O3)cc2c(=O)n1Cc1ccc(-c2ccccc2-c2nn[nH]n2)cc1` (stereo not shown) [Example 11] gave an IC50 of 132 nM.

(Values after US5338736A, “Angiotensin II receptor blocking 2,3,6-substituted quinazolinones” (American Cyanamid Company, priority 1993, dated 1994).)
